According to ChEMBL document CHEMBL3407491, “Synthesis, characterization and in vitro photodynamic antimicrobial activity of basic amino acid-porphyrin conjugates” (Eur J Med Chem, 2015):
Values after ≈ are worked out from the molar mass of the structure shown. Active and inactive are the calls of the source. The rule behind the calls is not given here.

Assays:
[1] = system: Escherichia coli; assay: Antibacterial activity against Escherichia coli ATCC 25922 at 3.91 uM to 62.50 uM incubated in dark for 30 mins followed by exposure to light fluences at 650 nm and 6 J/cm2 and then incubated overnight measured after 24 hrs; format: functional, organism-based
[2] = system: Escherichia coli; assay: Bactericidal activity against Escherichia coli ATCC 25922 incubated in dark for 30 mins followed by exposure to light fluences at 650 nm and 6 J/cm2 and then incubated overnight followed by further incubation on LB agar plates for another 24 hrs; format: functional; conditions: ATCC 25922, light or radiation study
[3] = system: Pseudomonas aeruginosa; assay: Antibacterial activity against Pseudomonas aeruginosa ATCC 27853 incubated in dark for 30 mins followed by exposure to light fluences at 650 nm and 6 J/cm2 and then incubated overnight measured after 24 hrs; format: functional; conditions: ATCC 27853, light or radiation study
[4] = system: Staphylococcus aureus; assay: Antibacterial activity against methicillin-resistant Staphylococcus aureus incubated in dark for 30 mins followed by exposure to light fluences at 650 nm and 6 J/cm2 and then incubated overnight measured after 24 hrs; format: functional; conditions: light or radiation study
[5] = system: Pseudomonas aeruginosa; assay: Antibacterial activity against Pseudomonas aeruginosa ATCC 27853 at 3.91 uM to 62.50 uM incubated in dark for 30 mins followed by exposure to light fluences at 650 nm and 6 J/cm2 and then incubated overnight measured after 24 hrs; format: functional, organism-based
[6] = system: Escherichia coli; assay: Antibacterial activity against Escherichia coli ATCC 25922 incubated in dark for 30 mins measured after 24 hrs; format: functional
[7] = system: Pseudomonas aeruginosa; assay: Bactericidal activity against Pseudomonas aeruginosa ATCC 27853 incubated in dark for 30 mins followed by exposure to light fluences at 650 nm and 6 J/cm2 and then incubated overnight followed by further incubation on LB agar plates for another 24 hrs; format: functional; conditions: ATCC 27853, light or radiation study
[8] = Photostability at 2 x 10^-5 mol/L exposed to 4.2 mW/cm2 light energy density assessed as change in absorption spectra after 30 mins post irradiation; format: physicochemical; conditions: 0.5 h, 20 µM
[9] = system: Pseudomonas aeruginosa; assay: Antibacterial activity against Pseudomonas aeruginosa ATCC 27853 at 0.49 uM to 7.8 uM incubated in dark for 30 mins followed by exposure to light fluences at 650 nm and 6 J/cm2 and then incubated overnight measured after 24 hrs; format: functional, organism-based
[10] = system: Escherichia coli; assay: Antibacterial activity against Escherichia coli ATCC 25922 incubated in dark for 30 mins and grown for 24 hrs followed by further incubation on LB agar plates for another 24 hrs; format: functional
[11] = system: Staphylococcus aureus; assay: Bactericidal activity against methicillin-resistant Staphylococcus aureus incubated in dark for 30 mins followed by exposure to light fluences at 650 nm and 6 J/cm2 and then incubated overnight followed by further incubation on LB agar plates for another 24 hrs; format: functional; conditions: light or radiation study
[12] = system: Pseudomonas aeruginosa; assay: Antibacterial activity against Pseudomonas aeruginosa ATCC 27853 incubated in dark for 30 mins and grown for 24 hrs followed by further incubation on LB agar plates for another 24 hrs; format: functional
[13] = system: Escherichia coli; assay: Antibacterial activity against Escherichia coli ATCC 25922 incubated in dark for 30 mins followed by exposure to light fluences at 650 nm and 6 J/cm2 and then incubated overnight measured after 24 hrs; format: functional; conditions: ATCC 25922, light or radiation study
[14] = system: Staphylococcus aureus; assay: Antibacterial activity against methicillin-resistant Staphylococcus aureus at 0.49 uM to 7.8 uM incubated in dark for 30 mins followed by exposure to light fluences at 650 nm and 6 J/cm2 and then incubated overnight measured after 24 hrs; format: functional, organism-based
[15] = system: Staphylococcus aureus; assay: Antibacterial activity against methicillin-resistant Staphylococcus aureus incubated in dark for 30 mins and grown for 24 hrs followed by further incubation on LB agar plates for another 24 hrs; format: functional
[16] = system: Pseudomonas aeruginosa; assay: Antibacterial activity against Pseudomonas aeruginosa ATCC 27853 incubated in dark for 30 mins measured after 24 hrs; format: functional
[17] = system: Staphylococcus aureus; assay: Antibacterial activity against methicillin-resistant Staphylococcus aureus incubated in dark for 30 mins measured after 24 hrs; format: functional
[18] = system: Escherichia coli; assay: Antibacterial activity against Escherichia coli ATCC 25922 at 0.49 uM to 7.8 uM incubated in dark for 30 mins followed by exposure to light fluences at 650 nm and 6 J/cm2 and then incubated overnight measured after 24 hrs; format: functional, organism-based
[19] = Octanol water partition coefficient, log P of the compound by reverse-phase thin-layer chromatography; format: physicochemical
[20] = Singlet oxygen generation of the compound exposed to 4.2 mW/cm2 light energy density assessed as singlet oxygen quantum yield measured at 410 nm in 10 seconds intervals of irradiation at 0.2 uM by DPBF scavenger based assay

| Compound | Activity [1] | MBC [2] | MIC [3] | MIC [4] | Activity [5] | MIC [6] | MBC [7] | Activity [8] | Activity [9] | MBC [10] | MBC [11] | MBC [12] | MIC [13] | Activity [14] | MBC [15] | MIC [16] | MIC [17] | Activity [18] | logP [19] | Activity [20] |
| --- | --- | --- | --- | --- | --- | --- | --- | --- | --- | --- | --- | --- | --- | --- | --- | --- | --- | --- | --- | --- |
| Nc1ccc(-c2c3nc(c(-c4ccccc4)c4ccc([nH]4)c(-c4ccccc4)c4nc(c(-c5ccccc5)c5ccc2[nH]5)C=C4)C=C3)cc1 | inactive | 125 µM (≈ 78.7 µg/mL) | 62.5 µM (≈ 39.4 µg/mL) | 125 µM (≈ 78.7 µg/mL) | inactive | 125 µM (≈ 78.7 µg/mL) | 125 µM (≈ 78.7 µg/mL) | < 20% | inactive | 500 µM (≈ 315 µg/mL) | 500 µM (≈ 315 µg/mL) | 250 µM (≈ 157 µg/mL) | 62.5 µM (≈ 39.4 µg/mL) | inactive | 500 µM (≈ 315 µg/mL) | 125 µM (≈ 78.7 µg/mL) | 125 µM (≈ 78.7 µg/mL) | inactive | – | – |
| Nc1ccc(-c2c3nc(c(-c4ccc(N)cc4)c4ccc([nH]4)c(-c4ccc(N)cc4)c4nc(c(-c5ccc(N)cc5)c5ccc2[nH]5)C=C4)C=C3)cc1 | – | 250 µM (≈ 169 µg/mL) | 125 µM (≈ 84.4 µg/mL) | 62.5 µM (≈ 42.2 µg/mL) | – | 125 µM (≈ 84.4 µg/mL) | 250 µM (≈ 169 µg/mL) | – | – | 250 µM (≈ 169 µg/mL) | 125 µM (≈ 84.4 µg/mL) | 250 µM (≈ 169 µg/mL) | 125 µM (≈ 84.4 µg/mL) | – | 500 µM (≈ 337 µg/mL) | 125 µM (≈ 84.4 µg/mL) | 125 µM (≈ 84.4 µg/mL) | – | – | – |
| Nc1ccc(-c2c3nc(c(-c4ccccc4)c4ccc([nH]4)c(-c4ccc(N)cc4)c4nc(c(-c5ccccc5)c5ccc2[nH]5)C=C4)C=C3)cc1 | inactive | 500 µM (≈ 322 µg/mL) | 125 µM (≈ 80.6 µg/mL) | 62.5 µM (≈ 40.3 µg/mL) | inactive | > 500 µM | 250 µM (≈ 161 µg/mL) | < 20% | inactive | > 500 µM | 125 µM (≈ 80.6 µg/mL) | 250 µM (≈ 161 µg/mL) | 125 µM (≈ 80.6 µg/mL) | inactive | 125 µM (≈ 80.6 µg/mL) | 125 µM (≈ 80.6 µg/mL) | 62.5 µM (≈ 40.3 µg/mL) | inactive | – | – |
| Nc1ccc(-c2c3nc(c(-c4ccc(N)cc4)c4ccc([nH]4)c(-c4ccc(NC(=O)[C@@H](N)Cc5c[nH]cn5)cc4)c4nc(c(-c5ccc(N)cc5)c5ccc2[nH]5)C=C4)C=C3)cc1 | inactive | 250 µM (≈ 203 µg/mL) | 62.5 µM (≈ 50.7 µg/mL) | 62.5 µM (≈ 50.7 µg/mL) | inactive | 62.5 µM (≈ 50.7 µg/mL) | 250 µM (≈ 203 µg/mL) | < 20% | inactive | 250 µM (≈ 203 µg/mL) | 250 µM (≈ 203 µg/mL) | 250 µM (≈ 203 µg/mL) | 62.5 µM (≈ 50.7 µg/mL) | inactive | 250 µM (≈ 203 µg/mL) | 62.5 µM (≈ 50.7 µg/mL) | 62.5 µM (≈ 50.7 µg/mL) | inactive | 1.53 | 0.2 |
| N=C(N)NCCC[C@H](N)C(=O)Nc1ccc(-c2c3nc(c(-c4ccc(N)cc4)c4ccc([nH]4)c(-c4ccc(N)cc4)c4nc(c(-c5ccc(N)cc5)c5ccc2[nH]5)C=C4)C=C3)cc1 | inactive | 125 µM (≈ 104 µg/mL) | 62.5 µM (≈ 51.9 µg/mL) | 62.5 µM (≈ 51.9 µg/mL) | inactive | 62.5 µM (≈ 51.9 µg/mL) | 250 µM (≈ 208 µg/mL) | < 20% | inactive | 125 µM (≈ 104 µg/mL) | 500 µM (≈ 416 µg/mL) | 250 µM (≈ 208 µg/mL) | 62.5 µM (≈ 51.9 µg/mL) | inactive | 500 µM (≈ 416 µg/mL) | 62.5 µM (≈ 51.9 µg/mL) | 62.5 µM (≈ 51.9 µg/mL) | inactive | 1.25 | 0.47 |
| NCCCC[C@H](N)C(=O)Nc1ccc(-c2c3nc(c(-c4ccccc4)c4ccc([nH]4)c(-c4ccc(N)cc4)c4nc(c(-c5ccccc5)c5ccc2[nH]5)C=C4)C=C3)cc1 | – | 125 µM (≈ 96.6 µg/mL) | 62.5 µM (≈ 48.3 µg/mL) | 62.5 µM (≈ 48.3 µg/mL) | – | 62.5 µM (≈ 48.3 µg/mL) | 125 µM (≈ 96.6 µg/mL) | < 20% | – | 125 µM (≈ 96.6 µg/mL) | 250 µM (≈ 193 µg/mL) | 250 µM (≈ 193 µg/mL) | 62.5 µM (≈ 48.3 µg/mL) | – | 250 µM (≈ 193 µg/mL) | 125 µM (≈ 96.6 µg/mL) | 125 µM (≈ 96.6 µg/mL) | – | 1.46 | 0.27 |
